Here are results for 10 molecules from US9115137B2, “2,3,4,5-tetrahydro-1H-pyrido[4,3-B]indole compounds and methods of use thereof” (priority 2008, dated 2015).

What is called inhibition is the change of the read-out against control, counted positive when it falls.

Test [1] has as its system rat central imidazoline I2 receptor. Description: Central imidazoline I2 radioligand binding ([3H]Idazoxan). As to conditions: compound at 1 μM; Wistar Rat cerebral cortex. Here is the method:
To evaluate in radioligand binding assays the activity of compounds of the invention, rat central imidazoline I2 receptor obtained from Wistar Rat cerebral cortex (Brown, C. M. et al., Br. J. Pharmacol. 99:803, 1990) in a modified Tris-HCl buffer (50 mM Tris-HCl buffer, pH 7.4, 0.5 mM EDTA) was used. Compounds of the invention were incubated with 2 nM [^3H]Idazoxan for 30 minutes at 25° C. Non-specific binding was estimated in the presence of 1 μM Idazoxan. Receptor proteins were filtered and washed, the filters were then counted to determine [^3H]Idazoxan specifically bound. Compounds were screened at 1 μM or lower, using 1% DMSO as vehicle. Compounds of the invention were tested in this biochemical assay and percent inhibition of specific binding was determined. Biochemical assay results are presented as the percent inhibition of specific binding in Table 5.

Test [2] deals with T1, human recombinant adrenergic α2A receptor (Homo sapiens, UniProt P08913).
T1 construct: expressed in transfected cells; host or cells: insect Sf9 cells
T1 sequence (P08913 1-465): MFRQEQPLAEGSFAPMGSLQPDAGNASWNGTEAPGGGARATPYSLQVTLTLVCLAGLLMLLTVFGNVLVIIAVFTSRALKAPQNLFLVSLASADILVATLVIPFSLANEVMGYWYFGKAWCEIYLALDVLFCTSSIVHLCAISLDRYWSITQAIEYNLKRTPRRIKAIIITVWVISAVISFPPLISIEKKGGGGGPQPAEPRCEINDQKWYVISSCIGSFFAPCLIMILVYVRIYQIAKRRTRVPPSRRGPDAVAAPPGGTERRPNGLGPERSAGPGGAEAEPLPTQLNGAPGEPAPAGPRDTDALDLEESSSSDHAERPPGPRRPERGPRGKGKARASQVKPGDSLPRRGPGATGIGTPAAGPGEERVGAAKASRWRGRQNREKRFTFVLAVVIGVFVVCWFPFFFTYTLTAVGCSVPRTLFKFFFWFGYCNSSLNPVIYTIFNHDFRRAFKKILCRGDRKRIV
In words: Adrenergic α2A radioligand binding ([3H]MK-912). As to conditions: compound at 1 μM; insect Sf9 cells; read-out: Adrenergic (1 μM) α2A, percent inhibition of specific binding. As to the method: To evaluate in radioligand binding assays the activity of compounds of the invention, human recombinant adrenergic α2A receptor expressed in insect Sf9 cells (Uhlen S et al. J Pharmacol Exp Ther. 271:1558, 1994) in a modified Tris-HCl buffer (50 mM Tris-HCl, pH 7.4, 12.5 mM MgCl2, 2 mM EDTA) was used. Compounds of invention were incubated with 1 nM [^3H]MK-912 for 60 minutes at 25° C. MK912 is (2S-trans)-1,3,4,5′,6,6′,7,12b-octahydro-1′,3′-dimethyl-spiro[2H-benzofuro[2,3-a]quinolizine-2,4′(1′H)-pyrimidin]-2′(3′H)-one hydrochloride Non-specific binding was estimated in the presence of 10 μM WB-4101 (2-(2,6-Dimethoxyphenoxyethyl)aminomethyl-1,4-benzodioxane hydrochloride). Receptor proteins were filtered and washed, the filters were then counted to determine [^3H]MK-912 specifically bound. Compounds were screened at 1 μM or lower, using 1% DMSO as vehicle. Biochemical assay results are presented as the percent inhibition of specific binding in Table 6.

Test [3] addresses T2, human recombinant serotonin (5-Hydroxytryptamine) 5-HT2A receptor (Homo sapiens, UniProt P28223).
T2 construct: expressed in transfected cells; host or cells: CHO-K1 cells
In words: Serotonin 5-HT2A radioligand binding ([3H]Ketanserin). As to conditions: compound at 1 μM; CHO-K1 cells; read-out: Serotonin (1 μM) 5-HT2A, percent inhibition of specific binding. As to the method:
To evaluate in radioligand binding assays the activity of compounds of the invention, human recombinant serotonin (5-Hydroxytryptamine) 5-HT2A receptor expressed in Chinese hamster ovary (CHO-K1) cells (Bonhaus, D. W. et al. Br. J. Pharmacol. 115:622, 1995; Saucier, C. and Albert, P. R., J. Neurochem. 68:1998, 1997) in a 50 mM Tris-HCl buffer, pH 7.4, was used. Compounds of the invention were incubated with 0.5 nM [^3H]Ketanserin for 60 minutes at 25° C. Non-specific binding was estimated in the presence of 1 μM Mianserin. Receptor proteins were filtered and washed, the filters were then counted to determine [^3H] Ketanserin specifically bound. Compounds were screened at 1 μM or lower, using 1% DMSO as vehicle. Biochemical assay results are presented as the percent inhibition of specific binding in Table 7.

For test [4], the target named is T3, human recombinant serotonin (5-Hydroxytryptamine) 5-HT2B receptor (Homo sapiens, UniProt P41595).
T3 construct: expressed in transfected cells; host or cells: CHO-K1 cells
T3 sequence (P41595 whole entry): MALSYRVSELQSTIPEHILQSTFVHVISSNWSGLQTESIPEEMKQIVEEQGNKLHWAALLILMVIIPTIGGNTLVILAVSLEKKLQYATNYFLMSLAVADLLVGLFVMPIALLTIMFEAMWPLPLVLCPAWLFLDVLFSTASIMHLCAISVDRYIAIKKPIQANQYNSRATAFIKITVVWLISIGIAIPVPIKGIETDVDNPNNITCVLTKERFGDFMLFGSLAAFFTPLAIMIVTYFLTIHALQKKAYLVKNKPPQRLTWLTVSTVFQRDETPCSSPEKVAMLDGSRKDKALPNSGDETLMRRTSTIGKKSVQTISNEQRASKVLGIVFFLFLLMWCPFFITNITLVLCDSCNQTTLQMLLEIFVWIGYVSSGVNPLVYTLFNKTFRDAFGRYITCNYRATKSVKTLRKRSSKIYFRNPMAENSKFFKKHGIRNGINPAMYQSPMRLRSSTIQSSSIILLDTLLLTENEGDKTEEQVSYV
In words: Serotonin 5-HT2B radioligand binding ([3H]LSD). As to conditions: compound at 1 μM; CHO-K1 cells; read-out: Serotonin (1 μM) 5-HT2B, percent inhibition of specific binding. As to the method:
To evaluate in radioligand binding assays the activity of compounds of the invention, human recombinant serotonin (5-Hydroxytryptamine) 5-HT2B receptor expressed in Chinese hamster ovary (CHO-K1) cells (Bonhaus, D. W. et al., Br. J. Pharmacol. 115:622, 1995) in a modified Tris-HCl buffer (50 mM Tris-HCl, pH 7.4, 4 mM CaCl2, 0.1% Ascorbic Acid) was used. Compounds of invention were incubated with 1.2 nM [^3H]Lysergic acid diethylamide (LSD) for 60 minutes at 37° C. Non-specific binding was estimated in the presence of 10 μM Serotonin (5-HT). Receptor proteins were filtered and washed, the filters were then counted to determine [^3H]LSD specifically bound. Compounds were screened at 1 μM or lower, using 1% DMSO as vehicle. Compounds of the invention were tested in this biochemical assay and percent inhibition of specific binding was determined. Biochemical assay results are presented as the percent inhibition of specific binding in Table 7.

Test [5] deals with T4, human recombinant serotonin (5-Hydroxytryptamine) 5-HT7 receptor (Homo sapiens, UniProt P34969).
T4 construct: expressed in transfected cells; host or cells: CHO cells
T4 sequence (P34969 whole entry): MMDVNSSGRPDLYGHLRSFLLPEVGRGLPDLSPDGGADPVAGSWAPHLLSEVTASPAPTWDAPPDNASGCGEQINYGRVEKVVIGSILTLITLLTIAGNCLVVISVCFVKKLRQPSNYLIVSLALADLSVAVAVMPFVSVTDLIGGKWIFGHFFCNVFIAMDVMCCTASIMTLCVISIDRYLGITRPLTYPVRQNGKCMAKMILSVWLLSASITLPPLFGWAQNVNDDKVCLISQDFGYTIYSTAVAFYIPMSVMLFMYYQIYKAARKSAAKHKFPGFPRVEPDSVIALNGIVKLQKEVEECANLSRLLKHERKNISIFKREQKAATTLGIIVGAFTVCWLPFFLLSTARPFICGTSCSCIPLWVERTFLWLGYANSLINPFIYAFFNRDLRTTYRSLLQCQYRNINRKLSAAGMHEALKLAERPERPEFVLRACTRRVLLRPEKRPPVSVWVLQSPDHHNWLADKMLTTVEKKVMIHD
In words: Serotonin 5-HT7 radioligand binding ([3H]LSD). As to conditions: compound at 1 μM; CHO cells; read-out: Serotonin (1 μM) 5-HT7, percent inhibition of specific binding. Here is the method:
To evaluate in radioligand binding assays the activity of compounds of the invention, human recombinant serotonin (5-Hydroxytryptamine) 5-HT7 receptor expressed in Chinese hamster ovary (CHO) cells (Roth, B. L. et al., J. Pharmacol. Exp. Ther. 268:1403, 1994; Shen, Y. et al., J. Biol. Chem. 268:18200, 1993) in a modified Tris-HCl buffer (50 mM Tris-HCl, pH 7.4, 10 mM MgCl2, 0.5 mM EDTA) was used. Compounds of invention were incubated with 5.5 nM [^3H] Lysergic acid diethylamide (LSD) for 2 hours at 25° C. Non-specific binding was estimated in the presence of 10 μM Serotonin (5-HT). Receptor proteins were filtered and washed, the filters were then counted to determine [^3H]LSD specifically bound. Compounds were screened at 1 μM or lower, using 1% DMSO as vehicle. Biochemical assay results are presented as the percent inhibition of specific binding in Table 7.

T2 sequence (P28223 whole entry): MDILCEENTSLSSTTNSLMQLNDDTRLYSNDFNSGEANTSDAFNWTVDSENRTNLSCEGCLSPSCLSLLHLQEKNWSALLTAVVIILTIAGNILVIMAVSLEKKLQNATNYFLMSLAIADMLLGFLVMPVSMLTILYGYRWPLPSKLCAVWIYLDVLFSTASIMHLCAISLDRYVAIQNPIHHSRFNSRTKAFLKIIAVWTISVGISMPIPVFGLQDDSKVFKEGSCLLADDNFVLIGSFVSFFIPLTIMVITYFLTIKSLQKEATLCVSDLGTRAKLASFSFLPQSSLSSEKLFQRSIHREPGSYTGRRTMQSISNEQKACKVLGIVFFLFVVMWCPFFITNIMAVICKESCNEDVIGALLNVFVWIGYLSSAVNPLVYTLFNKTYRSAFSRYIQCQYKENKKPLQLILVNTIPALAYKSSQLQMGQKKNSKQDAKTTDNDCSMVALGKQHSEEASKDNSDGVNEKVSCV

Regarding `CCOC(=O)CCn1c2c(c3cc(C)ccc31)CN(C)CC2` [CD1, ethyl 3-(1,2,3,4-tetrahydro-2,8-dimethylpyrido[4,3-b]indol-5-yl)propanoate], the “Imidazoline I2 Central (1 μM), percent inhibition of specific binding” value in test [1] is 55%. The inhibition at 1 µM was determined as 62% in test [2], 89% in test [3], 54% in test [4] and 85% in test [5].

As to `Cc1ccc2c(c1)c1c(n2CC#N)CCN(C)C1` [CD61, 2-(1,2,3,4-tetrahydro-2,8-dimethylpyrido[4,3-b]indol-5-yl)acetonitrile], in test [1], the “Imidazoline I2 Central (1 μM), percent inhibition of specific binding” value was determined as 60%. For the same molecule, the inhibition at 1 µM stood at 73% in test [2], 77% in test [3], 43% in test [4] and 94% in test [5].

Regarding `C#CCn1c2c(c3cc(C)ccc31)CN(C)CC2` [CD73, 2,8-dimethyl-5-(prop-2-ynyl)-2,3,4,5-tetrahydro-1H-pyrido[4,3-b]indole], the “Imidazoline I2 Central (1 μM), percent inhibition of specific binding” value in test [1] was 73%. The inhibition at 1 µM in test [2] turned out to be 70%; in test [3], 87%; in test [4] it was 94%; in test [5], 91%.

Turning to `CNC(=O)CCn1c2c(c3cc(C)ccc31)CN(C)CC2` [Compound 1, 3-(1,2,3,4-tetrahydro-2,8-dimethylpyrido[4,3-b]indol-5-yl)-N-methylpropanamide], in test [1], the “Imidazoline I2 Central (1 μM), percent inhibition of specific binding” value is recorded as 18%. The inhibition at 1 µM in test [2] amounted to 18%; in test [3] it was 30%; in test [4], 23%; in test [5] it was 33%.

With `CCNC(=O)CCn1c2c(c3cc(C)ccc31)CN(C)CC2` [Compound 2, N-ethyl-3-(1,2,3,4-tetrahydro-2,8-dimethylpyrido[4,3-b]indol-5-yl)propanamide], the “Imidazoline I2 Central (1 μM), percent inhibition of specific binding” value in test [1] is 8%. In addition, the inhibition at 1 µM is 35% in test [2], 22% in test [3], 20% in test [4] and 47% in test [5].

Consider `Cc1ccc2c(c1)c1c(n2CCC(=O)NC2CCCCC2)CCN(C)C1` [Compound 3, N-cyclohexyl-3-(1,2,3,4-tetrahydro-2,8-dimethylpyrido[4,3-b]indol-5-yl)propanamide], for which the “Imidazoline I2 Central (1 μM), percent inhibition of specific binding” value in test [1] is listed as 27%. For the same molecule, the inhibition at 1 µM stood at 14% in test [2], 63% in test [3], 21% in test [4] and 36% in test [5].

Regarding `Cc1ccc2c(c1)c1c(n2CCC(=O)NC2CCCC2)CCN(C)C1` [Compound 4, N-cyclopentyl-3-(1,2,3,4-tetrahydro-2,8-dimethylpyrido[4,3-b]indol-5-yl)propanamide], in test [1], the “Imidazoline I2 Central (1 μM), percent inhibition of specific binding” value is reported as 54%. Moreover, the inhibition at 1 µM in test [2] was 45%; in test [3], 53%; in test [4] it was 40%; in test [5], 59%.

With `Cc1ccc2c(c1)c1c(n2CCNC(=O)C2CCCC2)CCN(C)C1` [Compound 68, N-(2-(1,2,3,4-tetrahydro-2,8-dimethylpyrido[4,3-b]indol-5-yl)ethyl)cyclopentanecarboxamide], the figures for the inhibition at 1 µM in test [2] and in test [3] were 62% and 77%, respectively.

As for `Cc1ccc2c(c1)c1c(n2CCNC(=O)c2ccncc2C)CCN(C)C1` [Compound 69, N-(2-(1,2,3,4-tetrahydro-2,8-dimethylpyrido[4,3-b]indol-5-yl)ethyl)-3-methylpyridine-4-carboxamide], the inhibition at 1 µM was 25% in test [2] and 30% in test [3].

On to `Cc1ccc2c(c1)c1c(n2C2CCCCC2O)CCN(C)C1` (stereo not drawn) [Compound 73, 2-(1,2,3,4-tetrahydro-2,8-dimethylpyrido[4,3-b]indol-5-yl)cyclohexanol], for which the values for the inhibition at 1 µM in test [2], in test [3] and in test [5] were 11%, 50% and 5%, respectively.
